Assay [1] concerns the target T1, purified rat liver 6-phosphofructo-1-kinase (Rattus norvegicus, UniProt P30835).
T1 construct: purified rat liver 6-phosphofructo-1-kinase; from tissue; host or cells: rat liver
T1 sequence (P30835 2-780 limits assumed): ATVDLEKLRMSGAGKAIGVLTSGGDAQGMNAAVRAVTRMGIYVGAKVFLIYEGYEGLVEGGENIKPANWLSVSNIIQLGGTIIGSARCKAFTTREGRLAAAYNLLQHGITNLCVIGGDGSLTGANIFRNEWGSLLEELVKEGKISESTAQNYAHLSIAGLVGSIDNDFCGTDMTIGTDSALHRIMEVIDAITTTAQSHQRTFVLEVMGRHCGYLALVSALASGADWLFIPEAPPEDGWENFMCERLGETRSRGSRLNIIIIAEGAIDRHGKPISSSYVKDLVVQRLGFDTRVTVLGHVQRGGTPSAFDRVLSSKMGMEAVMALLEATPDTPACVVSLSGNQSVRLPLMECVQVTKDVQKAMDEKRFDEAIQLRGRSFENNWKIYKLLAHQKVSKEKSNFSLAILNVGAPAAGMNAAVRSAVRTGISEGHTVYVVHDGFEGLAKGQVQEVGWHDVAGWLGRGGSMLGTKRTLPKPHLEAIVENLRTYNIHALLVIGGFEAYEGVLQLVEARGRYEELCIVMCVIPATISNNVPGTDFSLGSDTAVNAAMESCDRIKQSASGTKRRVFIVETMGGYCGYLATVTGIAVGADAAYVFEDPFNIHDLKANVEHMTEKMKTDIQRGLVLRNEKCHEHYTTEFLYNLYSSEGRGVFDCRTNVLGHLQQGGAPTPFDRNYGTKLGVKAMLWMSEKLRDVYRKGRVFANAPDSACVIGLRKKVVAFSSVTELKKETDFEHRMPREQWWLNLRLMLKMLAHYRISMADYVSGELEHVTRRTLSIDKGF
Kind of assay: stimulation of 6-phosphofructo-1-kinase (PFK), aldolase-coupled spectrophotometric assay. The class given is biochemical. The following applies: pH 7.3, 30° C., 1 mM ATP, 0.2 mM fructose-6-phosphate, read-out: PFK ED50. The procedure: (§1) The novel compounds of this invention were tested for their ability to stimulate the enzyme 6-phosphofructo-1-kinase ("PFK") and for their ability to inhibit the enzyme fructose-1,6-bisphosphatase ("FBP") using the procedures described below.
Effects on the activity of PFK were determined using an aldolase-coupled, spectrophotometric assay. The assay mixture contained: 50 mM N-tris(hydroxymethyl) methyl-2-aminoethanesulfonic acid, hydrochloride ("TES-HCl", pH 7.3); 1 mM ethylenediaminetetraacetic acid ("EDTA"); 6 mM magnesium chloride; 2.5 mM dithiothreitol; 0.165 mM nicotinamide adenine dinucleotide ("NADH"); 1 mM adenosine triphosphate ("ATP"); 0.04U aldolase; 0.4U triose phosphate isomerase; 1.5U alpha-glycerolphosphate dehydrogenase; 0.lU of purified rat liver 6-phosphofructo-1-kinase; and various concentrations of the test compound, all in a final volume of 1 ml. The mixture was preincubated for 3 minutes at 30° C. and then the reaction was initiated with 0.2 mM fructose-6-phosphate. The rate of decrease in absorbance at 340 nm was measured at 30° C. with a recording spectrophotometer.

The target in assay [2] is T2, purified rat liver FBP (fructose-1,6-bisphosphatase) (Rattus norvegicus, UniProt P19112).
T2 construct: purified rat liver FBP; from tissue; host or cells: rat liver
T2 sequence (P19112 2-363 limits assumed): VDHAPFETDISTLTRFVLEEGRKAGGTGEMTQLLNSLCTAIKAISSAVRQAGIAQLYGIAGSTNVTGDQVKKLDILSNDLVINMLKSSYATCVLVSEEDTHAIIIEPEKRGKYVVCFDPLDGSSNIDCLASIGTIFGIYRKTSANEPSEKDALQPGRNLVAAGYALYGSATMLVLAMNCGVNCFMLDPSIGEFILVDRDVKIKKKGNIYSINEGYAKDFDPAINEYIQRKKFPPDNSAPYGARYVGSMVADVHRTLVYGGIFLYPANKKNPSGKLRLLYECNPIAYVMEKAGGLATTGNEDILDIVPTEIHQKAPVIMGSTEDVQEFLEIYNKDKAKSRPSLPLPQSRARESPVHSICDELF
In words: inhibition of fructose-1,6-bisphosphatase (FBP), spectrophotometric assay. To be noted: pH 7.4, 30° C., 0.02 mM fructose-1,6-bis-phosphate. The class given is biochemical. The procedure: as §1
Effects on the activity of FBP were determined using a spectrophotometric assay. The assay mixture contained: 100 mM tris(hydroxymethyl)aminomethane, hydrochloride ("TRIS-HCl", pH 7.4); 2.5 mM beta-mercaptoethanol; 2 mM magnesium chloride; 0.05 mM EDTA; 0.2 mM nicotinamide adenine dinucleotide phosphate ("NADP"); 10 U phosphoglucose isomerase; 5 U glucose-6-phosphate dehydrogenase; 0.02U of purified rat liver FBP; and various concentrations of the test compound, all in a final volume of 1 ml. The mixture was preincubated for 3 minutes at 30° C. and then the reaction was initiated with 0.02 mM fructose-1,6-bis-phosphate. The rate of increase in absorbance at 340 nm was measured at 30° C. with a recording spectrophotometer

Each structure is given as a SMILES string.

Broadly, the IC50 is the concentration that gives 50% inhibition. `O=P(O)(O)OC[C@H]1O[C@](CO)(C(F)P(=O)(O)O)[C@@H](O)[C@@H]1O` (stereo partly drawn) [2,5-Anhydro-2-C-(fluorophosphonomethyl)-D-glucitol, 6-(dihydrogen phosphate)]: the EC50 in assay [1] is 1.3 µM. The half-inhibitory concentration (IC50) in assay [2] came to 378 µM.

In the case of `O=P(O)(O)OC[C@H]1O[C@H](CC(F)(F)P(=O)(O)O)[C@@H](O)[C@@H]1O` [3,6-Anhydro-1,2-dideoxy-1,1-difluoro-1-phosphono-D-manno-heptitol, 7-(dihydrogen phosphate)], the EC50 in assay [1] worked out at 3 µM. Also, half-maximal inhibition in assay [2] (IC50) required 27 µM.

With `O=P(O)(O)OC[C@H]1O[C@H](CC(F)P(=O)(O)O)[C@@H](O)[C@@H]1O` (stereo partly drawn) [[1R(and 1S)]-3,6-Anhydro-1,2-dideoxy-1-fluoro-1-phosphono-D-manno-heptitol, 7-(dihydrogen phosphate)], the EC50 in assay [1] was 1.3 µM. For the same molecule, the IC50 in assay [2] came to 61 µM.

Consider `O=P(O)(O)OC[C@H]1O[C@H](C(O)P(=O)(O)O)[C@@H](O)[C@@H]1O` (stereo partly drawn) [[1R(and/or 1S)]-2,5-Anhydro-1-C-phosphono-D-mannitol, 6-(dihydrogen phosphate)], for which, in assay [1], the EC50 was 13 µM. The IC50 in assay [2] came to 44 µM.

`O=P(O)(O)OC[C@H]1O[C@H](C(F)P(=O)(O)O)[C@@H](O)[C@@H]1O` (stereo partly drawn) [2,5-Anhydro-1-deoxy-1-fluoro-1-phosphono-D-mannitol, 6-(dihydrogen phosphate)]: the EC50 in assay [1] was found to be 22 µM. This molecule also returned an IC50 in assay [2] of 114 µM.

Consider `O=P(O)(O)OC[C@H]1O[C@H](C(F)(F)P(=O)(O)O)[C@@H](O)[C@@H]1O` [2,5-Anhydro-1-deoxy-1,1-difluoro-1-phosphono-D-mannitol, 6-(dihydrogen phosphate)], for which the EC50 in assay [1] turned out to be 14 µM. In assay [2], this molecule showed an IC50 of 226 µM.

`O=P(O)(O)OC[C@H]1O[C@](CO)(C(O)P(=O)(O)O)[C@@H](O)[C@@H]1O` (stereo partly drawn) [2,5-Anhydro-2-C-(hydroxyphosphonomethyl)-D-glucitol, 6-(dihydrogen phosphate)]: the EC50 in assay [1] amounted to 20 µM. This molecule also showed an IC50 in assay [2] of 393 µM.

With `O=P(O)(O)OC[C@H]1O[C@H](CC(O)P(=O)(O)O)[C@@H](O)[C@@H]1O` (stereo partly drawn) [[1R(and/or 1S)]-3,6-Anhydro-2-deoxy-1-phosphono-D-manno-heptitol, 7-(dihydrogen phosphate)], the EC50 in assay [1] worked out at 1 µM. This molecule gave an IC50 in assay [2] of 62 µM.

`O=P(O)(O)OC[C@H]1OC(C(F)P(=O)(O)O)[C@@H](O)[C@@H]1O` (mixture of isomers) [2,5-Anhydro-1-deoxy-1-fluoro-1-phosphono-D-glucitol and D-mannitol, 6-(dihydrogen phosphate) mixture (70:30)]: the EC50 in assay [1] worked out at 10 µM. Besides, in assay [2], the 50% inhibitory concentration (IC50) was 54 µM.

On to `O=P(O)(O)OC[C@H]1O[C@@](CO)(C(F)P(=O)(O)O)[C@@H](O)[C@@H]1O` (single isomer, unassigned) [2,5-Anhydro-1-deoxy-1-fluoro-2-(hydroxymethyl)-1-phosphono-D-glucitol, 6-(dihydrogen phosphate)], for which the EC50 in assay [1] amounted to 0.7 µM. The molecule also yielded an IC50 in assay [2] of 110 µM.

Values taken from patent publication US4943629A, “Antidiabetic alpha-substituted phosphonates” (American Cyanamid Company, priority 1988, dated 1990).
